Values after ≈ are worked out from the molar mass of the structure shown.
Legend:
MCF7 = assay: Antitumor activity against human MCF7 cells after 48 hrs by Sulphorhodamine-B assay; conditions: MCF7, 48 h
HeLa = assay: Antitumor activity against human HeLa cells after 48 hrs by Sulphorhodamine-B assay
HepG2 = assay: Antitumor activity against human HepG2 cells after 48 hrs by Sulphorhodamine-B assay; conditions: HepG2, 48 h

| SMILES | IC50 (MCF7) [µg/mL] | IC50 (HeLa) [µg/mL] | IC50 (HepG2) [µg/mL] |
| --- | --- | --- | --- |
| Cc1ccc(-c2nc(NC(=O)c3ccccc3)c3cc(Cl)ccc3n2)cc1 | 16.1 (≈ 43.1 µM) | 16.2 (≈ 43.3 µM) | 17.5 (≈ 46.8 µM) |
| Cc1ccc(-c2nc3ccc(Cl)cc3c(=S)[nH]2)cc1 | 3.35 (≈ 11.7 µM) | 4.57 (≈ 15.9 µM) | 7.01 (≈ 24.4 µM) |
| Cc1ccc(-c2nc(SCCO)c3cc(Cl)ccc3n2)cc1 | 3.76 (≈ 11.4 µM) | 9.25 (≈ 28 µM) | 9.04 (≈ 27.3 µM) |
| Cc1ccc(-c2nc(NO)c3cc(Cl)ccc3n2)cc1 | 6.81 (≈ 23.8 µM) | 12.7 (≈ 44.4 µM) | 23.1 (≈ 80.8 µM) |
| Cc1ccc(C(=O)Nc2ccc(Cl)cc2C(N)=O)cc1 | 5.39 (≈ 18.7 µM) | 8.23 (≈ 28.5 µM) | 21 (≈ 72.7 µM) |
| Cc1ccc(-c2nc3ccc(Cl)cc3c(=O)n2C)cc1 | 3.35 (≈ 11.8 µM) | 4.37 (≈ 15.3 µM) | 4.17 (≈ 14.6 µM) |
| Cc1ccc(-c2nc3ccc(Cl)cc3c(=O)n2N)cc1 | 5.39 (≈ 18.9 µM) | 12.1 (≈ 42.3 µM) | 18.4 (≈ 64.4 µM) |
| Cc1ccc(-c2nc(S(=O)(=O)Cc3ccccc3)c3cc(Cl)ccc3n2)cc1 | 3.96 (≈ 9.68 µM) | 7.01 (≈ 17.1 µM) | 7.21 (≈ 17.6 µM) |
| Cc1ccc(-c2nc3ccc(Cl)cc3c(=O)o2)cc1 | 10.5 (≈ 38.6 µM) | 8.23 (≈ 30.3 µM) | 22.5 (≈ 82.8 µM) |
| Cc1ccc(-c2nc(SCC(=O)Nc3ccc(F)cc3)c3cc(Cl)ccc3n2)cc1 | 14.7 (≈ 33.6 µM) | 10.5 (≈ 24 µM) | 18.4 (≈ 42 µM) |
| Cc1ccc(C(=O)Nc2ccc(Cl)cc2C(=S)NN)cc1 | 3.35 (≈ 10.5 µM) | 4.98 (≈ 15.6 µM) | 5.59 (≈ 17.5 µM) |
| Cc1ccc(-c2nc(SCC(N)=O)c3cc(Cl)ccc3n2)cc1 | 5.59 (≈ 16.3 µM) | 4.98 (≈ 14.5 µM) | 9.45 (≈ 27.5 µM) |
| Cc1ccc(-c2nc(N)c3cc(Cl)ccc3n2)cc1 | 3.76 (≈ 13.9 µM) | 3.56 (≈ 13.2 µM) | 14.5 (≈ 53.8 µM) |
| Cc1ccc(-c2nc(NOC(=O)c3ccccc3)c3cc(Cl)ccc3n2)cc1 | 5.59 (≈ 14.3 µM) | 5.18 (≈ 13.3 µM) | 12.1 (≈ 31 µM) |
| C=CCSc1nc(-c2ccc(C)cc2)nc2ccc(Cl)cc12 | 8.03 (≈ 24.6 µM) | 9.66 (≈ 29.6 µM) | 23.9 (≈ 73.1 µM) |
| Cc1ccc(-c2nc(SCC#N)c3cc(Cl)ccc3n2)cc1 | 3.35 (≈ 10.3 µM) | 3.76 (≈ 11.5 µM) | 4.37 (≈ 13.4 µM) |
| Cc1ccc(NC(=O)CSc2nc(-c3ccc(C)cc3)nc3ccc(Cl)cc23)cc1 | 5.79 (≈ 13.3 µM) | 12.3 (≈ 28.3 µM) | 18.8 (≈ 43.3 µM) |
| Cc1ccc(C(=O)Nc2ccc(Cl)cc2C(=O)O)cc1 | 14.7 (≈ 50.7 µM) | 18.9 (≈ 65.2 µM) | 15.9 (≈ 55.1 µM) |
| Cc1ccc(-c2nc(Sc3ncccc3[N+](=O)[O-])c3cc(Cl)ccc3n2)cc1 | 3.56 (≈ 8.71 µM) | 5.39 (≈ 13.2 µM) | 5.59 (≈ 13.7 µM) |
| Cc1ccc(-c2nc3ccc(Cl)cc3c(=O)[nH]2)cc1 | 4.98 (≈ 18.4 µM) | 10.1 (≈ 37.3 µM) | 9.86 (≈ 36.4 µM) |
| COc1cccc2c1C(=O)c1c(O)c3c(c(O)c1C2=O)C[C@@](O)(C(=O)CO)C[C@@H]3O[C@H]1C[C@H](N)[C@H](O)[C@H](C)O1 [DOXORUBICIN] | 3.76 (≈ 6.92 µM) | 3.64 (≈ 6.7 µM) | 4.57 (≈ 8.41 µM) |
| Cc1ccc(-c2nc(SCc3ccccc3)c3cc(Cl)ccc3n2)cc1 | 9.66 (≈ 25.6 µM) | 11.3 (≈ 30 µM) | 18.4 (≈ 48.8 µM) |
| CSc1nc(-c2ccc(C)cc2)nc2ccc(Cl)cc12 | 8.64 (≈ 28.7 µM) | 14.7 (≈ 48.9 µM) | 13.3 (≈ 44.2 µM) |
| Cc1ccc(-c2nc(SCC(=O)Nc3ccccc3)c3cc(Cl)ccc3n2)cc1 | 4.78 (≈ 11.4 µM) | 11.7 (≈ 27.9 µM) | 14.3 (≈ 34.1 µM) |
| CCOc1ccc(NC(=O)CSc2nc(-c3ccc(C)cc3)nc3ccc(Cl)cc23)cc1 | 15.8 (≈ 34.1 µM) | 10.1 (≈ 21.8 µM) | 5.99 (≈ 12.9 µM) |
| Cc1ccc(-c2nc(NN)c3cc(Cl)ccc3n2)cc1 | 3.76 (≈ 13.2 µM) | 3.98 (≈ 14 µM) | 4.17 (≈ 14.6 µM) |
| Cc1ccc(-c2nc3ccc(Cl)cc3c(=S)o2)cc1 | 5.18 (≈ 18 µM) | 13.3 (≈ 46.2 µM) | 11.1 (≈ 38.6 µM) |
| Cc1ccc(-c2nc3ccc(Cl)cc3c(=S)n2N)cc1 | 9.25 (≈ 30.6 µM) | 14 (≈ 46.4 µM) | 17 (≈ 56.3 µM) |
